# From ChEMBL document CHEMBL6096648, “Discovery of phenazine derivatives as a new class of non-classical ferroptosis inhibitors and efficacy evaluation on a mouse model of liver injury” (Eur J Med Chem, 2025)
# The source made the active and inactive calls. The calls are words filed in the database; no cut-off is given here.
# What was measured:
# Type in all cases: functional, cell-based
# ES-2 [1] = assay: Inhibition of erastin-induced ferroptosis in human ES2 cells assessed as increase in cell viability incubated for 48 hrs in presence of erastin by MTT assay; conditions: ES-2, 48 h
# LX-2 = assay: Inhibition of erastin-induced ferroptosis in human LX2 cells assessed as increase in cell viability incubated for 48 hrs in presence of erastin by MTT assay; conditions: LX-2, 48 h
# ES-2 [2] = assay: Inhibition of erastin-induced ferroptosis in human ES2 cells assessed as increase in intracellular GSH content at 1 uM measured after 8 to 10 hrs; conditions: time 8-10 hrs
# THP-1 = assay: Inhibition of LPS/nigericin-stimulated pyroptosis in PMA-differentiated human THP-1 cells assessed as cell viability at 10 uM treated with LPS for 4 hrs followed by incubation with compound and nigericin for 30 mins by MTT assay
# HT-29 = assay: Inhibition of TNF-alpha/Smac-mimetic/Z-VAD-FMK-induced necrosis in human HT-29 cells assessed as cell viability at 10 uM incubated for 24 hrs in presence of TNF-alpha/Smac-mimetic/Z-VAD-FMK by MTT assay
# ES-2 [3] = assay: Inhibition of staurosporine-induced apoptosis in human ES2 cells assessed as cell viability at 10 uM incubated for 24 hrs in presence of staurosporine by MTT assay
SMILES,EC50 (ES-2 [1]) [nM],EC50 (LX-2) [nM],other results
Brc1cccc(-c2noc(-c3cccc4nc5ccccc5nc34)n2)c1,2,6,
Fc1cccc(-c2noc(-c3cccc4nc5ccccc5nc34)n2)c1,2,2,
Cc1noc(-c2cccc3nc4ccccc4nc23)n1,268,,
c1cncc(-c2noc(-c3cccc4nc5ccccc5nc34)n2)c1,240,,
Fc1ccccc1-c1noc(-c2cccc3nc4ccccc4nc23)n1,5,1,
FC(F)(F)c1cccc(-c2noc(-c3cccc4nc5ccccc5nc34)n2)c1,2,13,
c1ccc2nc3c(-c4nc(-c5ccc(N6CCOCC6)cc5)no4)cccc3nc2c1,1,1,
CC(C)(C)c1cccc(-c2noc(-c3cccc4nc5ccccc5nc34)n2)c1,3,7,
CCOc1ccccc1-c1noc(-c2cccc3nc4ccccc4nc23)n1,23,10,
FC(F)(F)c1ccccc1-c1noc(-c2cccc3nc4ccccc4nc23)n1,39,15,
Fc1ccc(-c2noc(-c3cccc4nc5ccccc5nc34)n2)cc1,2,2,
c1ccc(-c2noc(-c3cccc4nc5ccccc5nc34)n2)cc1,4,,
c1ccc2nc3c(-c4nc(-n5cccn5)no4)cccc3nc2c1,143,,
CC(C)(C)c1ccc(-c2noc(-c3cccc4nc5ccccc5nc34)n2)cc1,11,13,
Fc1ccc(-c2noc(-c3cccc4nc5ccccc5nc34)n2)cc1F,9,11,
CCOC(=O)c1ccc(NC2CCCCC2)c(N)c1,70.1,67,inhibition (ES-2 [2]): inactive; inhibition (THP-1): inactive; inhibition (HT-29): inactive; inhibition (ES-2 [3]): inactive
